Laboratory results reported in US8497371B2, “Pipemidic acid derivative autotaxin inhibitors” (University of Memphis Research Foundation, priority 2009, dated 2013).

Assays:
human NPP6 = target: T1, human NPP6 (Homo sapiens, UniProt Q6UWR7); experiment: Determination of NPP6 inhibition (pNPPC substrate); format: biochemical; conditions: 10 μM inhibitor
T1 construct: transfected with human NPP6ex^51 or human NPP7ex expression plasmids; made in house; host or cells: HEK293 cells, transient transfection, pcDNA3.1(+); unconcentrated conditioned medium (CM)
T1 sequence (Q6UWR7 23-419 limits assumed): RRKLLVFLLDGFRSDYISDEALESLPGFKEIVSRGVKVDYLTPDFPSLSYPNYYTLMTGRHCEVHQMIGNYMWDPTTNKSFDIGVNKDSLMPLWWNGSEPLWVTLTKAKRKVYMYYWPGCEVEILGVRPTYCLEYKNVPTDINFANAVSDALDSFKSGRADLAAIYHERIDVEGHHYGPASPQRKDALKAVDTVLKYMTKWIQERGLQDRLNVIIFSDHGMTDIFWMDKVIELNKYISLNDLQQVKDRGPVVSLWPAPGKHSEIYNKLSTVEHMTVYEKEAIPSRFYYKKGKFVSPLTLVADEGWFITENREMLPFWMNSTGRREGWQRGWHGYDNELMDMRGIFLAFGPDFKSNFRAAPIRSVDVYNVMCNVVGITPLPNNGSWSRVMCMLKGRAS
Description: (§1) Inhibitor selectivity was assayed using p-nitrophenylphosphoryl-choline (pNPPC) (Sigma-Aldrich, St. Louis, Mo.) as substrate for NPP6 and NPP7. The final volume (60 μL) included 20 μL (CM, NPP6 or CCM, NPP7, 20 μL inhibitor (10 μM including 1% DMSO) in assay buffer, and 20 μL pNPPC (10 mM, NPP6 or 1 NPP7) in assay buffer. NPP6 assay buffer contained 500 mM NaCl, 0.05% Triton X-100, 100 mM Tris-HCl (pH 9.0), whereas NPP7 assay buffer was comprised of 50 mM Tris HCl, pH 8.5, 150 mM NaCl, and 10 mM taurocholic acid. However, unlike the published methods, EDTA was not added to the NPP7 assay buffer. All assays were performed in 96-well, half area plates (Corning Inc., Lowell, Mass.) at 37° C. with data collected at 2 minute intervals using a Synergy2 absorbance plate reader (BioTek, Winooski, Vt.). Results are shown at the one hour time point, when all absorbance changes as a function of time were linear. Readings were normalized to vehicle control after subtraction of absorbance in the absence of CM or CCM. Data are shown as the mean±S.D. of at least three wells. All experiments were repeated twice and representative results are shown.
(§2) Assays were performed with CM or CCM from HEK293 cells transiently transfected with NPP6 and 7 expression plasmids, respectively. HEK293 cells were seeded in Dulbecco's modified Eagle's medium (DMEM) containing 10% fetal bovine serum, 100 U/ml penicillin, 100 μg/ml streptomycin (Hyclone, Logan, Utah), and 2 mM L-glutamine. HEK293 cells were grown overnight at 37° C. under 5% CO2 to 80% confluence. The cells were then transfected with human NPP6ex^51 or human NPP7ex expression plasmids in the pcDNA3.1(+) mammalian vector in the presence of Polyfect Transfection Reagent (Hyclone, Logan, Utah). Six hours after transfection, the culture medium was changed to serum free DMEM containing L-glutamine and cells were incubated for 48 hours. Expressed protein was collected (NPP6 and NPP7) and concentrated ˜10×(NPP7) using 10 kDa molecular weight cutoff filters (Millipore, Beverly, Mass.) in an Amicon pressure cell (Millipore, Beverly, Mass.).

human NPP7 = target: T2, human NPP7 (Homo sapiens, UniProt Q6UWV6); experiment: Determination of NPP7 inhibition (pNPPC substrate); format: biochemical; conditions: 10 μM inhibitor
T2 construct: transfected with human NPP6ex^51 or human NPP7ex expression plasmids; made in house; host or cells: HEK293 cells, transient transfection, pcDNA3.1(+); conditioned medium concentrated about 10x (CCM)
T2 sequence (Q6UWV6 22-433 limits assumed): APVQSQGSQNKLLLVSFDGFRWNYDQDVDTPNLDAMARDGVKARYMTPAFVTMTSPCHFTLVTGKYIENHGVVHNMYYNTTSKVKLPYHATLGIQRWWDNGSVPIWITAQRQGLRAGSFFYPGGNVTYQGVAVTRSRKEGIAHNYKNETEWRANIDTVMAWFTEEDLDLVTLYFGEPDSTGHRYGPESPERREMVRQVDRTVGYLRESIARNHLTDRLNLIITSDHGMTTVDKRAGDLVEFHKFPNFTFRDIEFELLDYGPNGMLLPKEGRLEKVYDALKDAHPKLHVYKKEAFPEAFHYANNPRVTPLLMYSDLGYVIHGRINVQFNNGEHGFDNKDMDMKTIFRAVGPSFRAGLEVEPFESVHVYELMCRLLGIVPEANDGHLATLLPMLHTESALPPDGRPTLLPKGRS
Description: as §1, §2

ATX [1] = target: T3, ATX (Homo sapiens, UniProt Q13822); conditions: for Inhibition Mechanism: FS-3 substrate
ATX [2] = target: T3, ATX; experiment: ATX inhibition assay with FS-3 substrate; format: biochemical; parameters: conditioned serum-free medium (CCM) from MDA-MB-435 cells as the source of ATX; endogenous in cells; host or cells: MDA-MB-435 cells (about 10x concentrated serum-free conditioned medium); conditions: for % Response at 10 μM (FS-3): 10 μM compound, FS-3 hydrolysis normalized to vehicle control (low = strong inhibition), mean ± S.D.; for single dose response comparison by aromatic substituent and position: Table 2, same values as % Response at 10 μM; for inhibition at 10 µM: single dose 10 μM, % inhibition, read-out: inhibition of ATX-mediated hydrolysis of FS-3
Description: ATX inhibition was assayed using the substrate FS-3 (Echelon Biosciences, Inc., Salt Lake City, Utah, USA). The FS-3 assay used ˜10 times concentrated conditioned serum-free medium (CCM) from MDA-MB-435 cells as the source of ATX, while CCM comprised one-third of the total volume.
All assays were performed in 96-well plates with data read at 1 minute intervals by a Synergy2 system (BioTek, Winooski, Vt.). […] Results are shown at one hour, at which point all fluorescence and absorbance changes as a function of time were linear. All readings were normalized to vehicle control after subtraction of fluorescence in the absence of CCM. Data are shown as the mean±S.D. of at least three wells. All experiments were repeated at least twice and results are shown.

ATX [3] = target: T3, ATX; experiment: biochemical
[4] = Ki (nM), competitive inhibitors
[5] = Ki (μM), FS-3 substrate, for mixed mode Ki=IC50 assumed

CCn1cc(C(=O)O)c(=O)c2cnc(N3CCN(C(=S)Nc4ccc(I)cc4)CC3)nc21 [Compound 3, 2-(4-{[(4-iodophenyl)amino]carbonothioyl}-1-piperazinyl)-8-ethyl-5-oxo-5,8-dihydropyrido[2,3-d]pyrimidine-6-carboxylic acid]
effect on activity of NPP6 (human NPP6): None of the compounds affected the activity
effect on activity of NPP7 (human NPP7): None of the compounds affected the activity
mechanism of ATX inhibition (ATX [1]): mixed-mode
Inhibition Mechanism (ATX [1]): Mixed
% Response at 10 μM (FS-3) (ATX [2]): 32.7 ± 1.3%
single dose response comparison by aromatic substituent and position (ATX [2]): 32.7 ± 1.3
inhibition at 10 µM (ATX [2]): ≥ 50%

CCn1cc(C(=O)O)c(=O)c2cnc(N3CCN(C(=S)Nc4ccc5nsnc5c4)CC3)nc21 [Compound 7, 2-(4-{[(3-benzothiadiazolphenyl)amino]carbonothioyl}-1-piperazinyl)-8-ethyl-5-oxo-5,8-dihydropyrido[2,3-d]pyrimidine-6-carboxylic acid]
effect on activity of NPP6 (human NPP6): None of the compounds affected the activity
effect on activity of NPP7 (human NPP7): None of the compounds affected the activity
mechanism of ATX inhibition (ATX [1]): competitive
potency relative to the lead compound (ATX [1]): at least as potent as the lead compound
Inhibition Mechanism (ATX [1]): Competitive
Ki (ATX [3]; [4]): 30 to 430 nM
Ki (ATX [3]; [5]): 430 nM
% Response at 10 μM (FS-3) (ATX [2]): 28.6 ± 2.0%
IC50 (ATX [2]; FS-3 substrate): 12.1 ± 2.4 µM
IC50 (ATX [2]; Substrate FS-3 (1 μM)): 12.1 µM
inhibition at 10 µM (ATX [2]): ≥ 50%

CCn1cc(C(=O)O)c(=O)c2cnc(N3CCN(C(=S)Nc4cccc(C(F)(F)F)c4)CC3)nc21 [Compound 11, 2-(4-{[(3-trifluoromethylphenyl)amino]carbonothioyl}-1-piperazinyl)-8-ethyl-5-oxo-5,8-dihydropyrido[2,3-d]pyrimidine-6-carboxylic acid]
effect on activity of NPP6 (human NPP6): None of the compounds affected the activity
effect on activity of NPP7 (human NPP7): None of the compounds affected the activity
mechanism of ATX inhibition (ATX [1]): competitive
potency relative to the lead compound (ATX [1]): at least as potent as the lead compound
Inhibition Mechanism (ATX [1]): Competitive
Ki (ATX [3]; Ki): 30 nM
Ki (ATX [3]; [4]): 30 to 430 nM
% Response at 10 μM (FS-3) (ATX [2]): 0.3 ± 0.6%
IC50 (ATX [2]; FS-3 substrate): 0.9 ± 0.3 µM
IC50 (ATX [2]; Substrate FS-3 (1 μM)): 0.9 ± 0.3 µM
single dose response comparison by aromatic substituent and position (ATX [2]): 0.3 ± 0.6

CCn1cc(C(=O)O)c(=O)c2cnc(N3CCN(C(=S)Nc4cccc(C)c4)CC3)nc21 [Compound 13, 2-(4-{[(3-methylphenyl)amino]carbonothioyl}-1-piperazinyl)-8-ethyl-5-oxo-5,8-dihydropyrido[2,3-d]pyrimidine-6-carboxylic acid]
effect on activity of NPP6 (human NPP6): None of the compounds affected the activity
effect on activity of NPP7 (human NPP7): None of the compounds affected the activity
mechanism of ATX inhibition (ATX [1]): mixed-mode
potency relative to the lead compound (ATX [1]): as potent as or significantly less potent than the lead
Inhibition Mechanism (ATX [1]): Mixed
Ki (ATX [3]; Ki): 1700 to 13500 nM
Ki (ATX [3]; [5]): 13500 nM
% Response at 10 μM (FS-3) (ATX [2]): 41.9 ± 0.8%
IC50 (ATX [2]; FS-3 substrate): 13.5 ± 1.3 µM
inhibition at 10 µM (ATX [2]): ≥ 50%

CCn1cc(C(=O)O)c(=O)c2cnc(N3CCN(C(=S)Nc4cc(C(F)(F)F)cc(C(F)(F)F)c4)CC3)nc21 [Compound 18, 2-(4-{[(3,5-bis(trifluoromethyl)phenyl)amino]carbonothioyl}-1-piperazinyl)-8-ethyl-5-oxo-5,8-dihydropyrido[2,3-d]pyrimidine-6-carboxylic acid]
effect on activity of NPP6 (human NPP6): None of the compounds affected the activity
effect on activity of NPP7 (human NPP7): None of the compounds affected the activity
mechanism of ATX inhibition (ATX [1]): competitive
potency relative to the lead compound (ATX [1]): at least as potent as the lead compound
Inhibition Mechanism (ATX [1]): Competitive
Ki (ATX [3]; Ki): 160 nM
Ki (ATX [3]; [4]): 30 to 430 nM
% Response at 10 μM (FS-3) (ATX [2]): 34.1 ± 3.0%
IC50 (ATX [2]; FS-3 substrate): 4.4 ± 1.5 µM
IC50 (ATX [2]; Substrate FS-3 (1 μM)): 4.4 ± 1.5 µM
inhibition at 10 µM (ATX [2]): ≥ 50%

CCn1cc(C(=O)O)c(=O)c2cnc(N3CCN(C(=S)Nc4ccc(F)cc4)CC3)nc21 [Compound 23, 2-(4-{[(4-fluorophenyl)amino]carbonothioyl}-1-piperazinyl)-8-ethyl-5-oxo-5,8-dihydropyrido[2,3-d]pyrimidine-6-carboxylic acid]
effect on activity of NPP6 (human NPP6): None of the compounds affected the activity
effect on activity of NPP7 (human NPP7): None of the compounds affected the activity
% Response at 10 μM (FS-3) (ATX [2]): 48.9 ± 1.1%
IC50 (ATX [2]; FS-3 substrate): 17.7 µM
single dose response comparison by aromatic substituent and position (ATX [2]): 48.9 ± 1.1
inhibition at 10 µM (ATX [2]): ≥ 50%

CCn1cc(C(=O)O)c(=O)c2cnc(N3CCN(C(=S)Nc4cccc(F)c4)CC3)nc21 [Compound 25, 2-(4-{[(3-fluorophenyl)amino]carbonothioyl}-1-piperazinyl)-8-ethyl-5-oxo-5,8-dihydropyrido[2,3-d]pyrimidine-6-carboxylic acid]
effect on activity of NPP6 (human NPP6): None of the compounds affected the activity
effect on activity of NPP7 (human NPP7): None of the compounds affected the activity
% Response at 10 μM (FS-3) (ATX [2]): 40.5 ± 1.0%
IC50 (ATX [2]; FS-3 substrate): 16.1 ± 4.5 µM
single dose response comparison by aromatic substituent and position (ATX [2]): 40.5 ± 1.0
inhibition at 10 µM (ATX [2]): ≥ 50%

CCn1cc(C(=O)O)c(=O)c2cnc(N3CCN(C(=S)Nc4ccc(C)cc4)CC3)nc21 [Compound 27, 2-(4-{[(4-methylphenyl)amino]carbonothioyl}-1-piperazinyl)-8-ethyl-5-oxo-5,8-dihydropyrido[2,3-d]pyrimidine-6-carboxylic acid]
effect on activity of NPP6 (human NPP6): None of the compounds affected the activity
effect on activity of NPP7 (human NPP7): None of the compounds affected the activity
% Response at 10 μM (FS-3) (ATX [2]): 49.9 ± 1.5%
IC50 (ATX [2]; FS-3 substrate): 16.1 ± 4 µM
inhibition at 10 µM (ATX [2]): ≥ 50%

CCn1cc(C(=O)O)c(=O)c2cnc(N3CCN(C(=S)Nc4cccc(I)c4)CC3)nc21 [Compound 29, 2-(4-{[(3-iodophenyl)amino]carbonothioyl}-1-piperazinyl)-8-ethyl-5-oxo-5,8-dihydropyrido[2,3-d]pyrimidine-6-carboxylic acid]
effect on activity of NPP6 (human NPP6): None of the compounds affected the activity
effect on activity of NPP7 (human NPP7): None of the compounds affected the activity
mechanism of ATX inhibition (ATX [1]): uncompetitive
Inhibition Mechanism (ATX [1]): Uncompetitive
% Response at 10 μM (FS-3) (ATX [2]): 8.6 ± 0.9%
single dose response comparison by aromatic substituent and position (ATX [2]): 8.6 ± 0.9
inhibition at 10 µM (ATX [2]): ≥ 50%
